# ChEMBL document CHEMBL1201862, “PubChem BioAssay data set” (2004)
#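 48-hour exposure; five concentrations; linearly interpolated endpoints. GI50 marks 50% less growth.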 Activity calls are given as the source filed them. Cut-off read from the data, not from the text of the source: active = GI50 up to about 1.1 µM and inactive = higher.
# What was measured:
# Experiment in all cases: NCI anticancer screen, dose series, 48 h
# HOP-92 = tested on: HOP-92
# SK-MEL-28 = tested on: SK-MEL-28
# HCT-116 = tested on: HCT-116
# HL-60 = tested on: HL-60
# UO-31 = tested on: UO-31
# NCI-H226 = tested on: NCI-H226
# ACHN = tested on: ACHN
# UACC-257 = tested on: UACC-257
# SF-295 = tested on: SF-295
# A549 = tested on: A549
# HCT-15 = tested on: HCT-15
# CCRF-CEM = tested on: CCRF-CEM
# U-251 = tested on: U-251
# SN12C = tested on: SN12C
# RPMI-8226 = tested on: RPMI-8226
# NCI-H460 = tested on: NCI-H460
# HCC 2998 = tested on: HCC 2998
# COLO 205 = tested on: COLO 205
SMILES,GI50 (HOP-92),GI50 (SK-MEL-28),GI50 (HCT-116),GI50 (HL-60),GI50 (UO-31),GI50 (NCI-H226),GI50 (ACHN),GI50 (UACC-257),GI50 (SF-295),GI50 (A549),GI50 (HCT-15) [µM],GI50 (CCRF-CEM),GI50 (U-251),GI50 (SN12C),GI50 (RPMI-8226),GI50 (NCI-H460),GI50 (HCC 2998),GI50 (COLO 205)
NNC(=O)N/N=C(/CC1(O)C(=O)Nc2ccc(Br)cc21)c1ccccc1 (stereo not given),18.1 µM (inactive),28.2 µM (inactive),27.9 µM (inactive),21.9 µM (inactive),12.5 µM (inactive),82.6 µM (inactive),24.3 µM (inactive),77.3 µM (inactive),38.6 µM (inactive),50 µM (inactive),61.1,27.1 µM (inactive),> 10 µM (inactive),29.2 µM (inactive),48.4 µM (inactive),–,–,–
O=C(CC(=O)c1ccc([N+](=O)[O-])cc1)C(=O)Nc1nccs1,> 100 µM (inactive),> 81.5 µM (inactive),–,> 100 µM (inactive),> 100 µM (inactive),> 100 µM (inactive),> 100 µM (inactive),–,–,> 100 µM (inactive),> 100,> 100 µM (inactive),> 100 µM (inactive),> 100 µM (inactive),> 100 µM (inactive),> 100 µM (inactive),> 100 µM (inactive),–
Cc1nc(-c2cccnc2)sc1C(=O)/C=C/c1cccc([N+](=O)[O-])c1,> 100 µM (inactive),> 100 µM (inactive),–,> 100 µM (inactive),> 100 µM (inactive),> 100 µM (inactive),–,> 100 µM (inactive),> 100 µM (inactive),> 100 µM (inactive),> 100,> 100 µM (inactive),> 100 µM (inactive),> 100 µM (inactive),> 100 µM (inactive),> 100 µM (inactive),> 100 µM (inactive),> 100 µM (inactive)
COc1cc(OC)c([C@@H]2OC(=O)C3C2C(=O)O[C@H]3c2cc(OC)c(OC)cc2OC)cc1OC (stereo not given in full),> 10 µM (inactive),> 100 µM (inactive),> 100 µM (inactive),88.9 µM (inactive),> 100 µM (inactive),–,> 100 µM (inactive),> 100 µM (inactive),> 100 µM (inactive),> 100 µM (inactive),> 100,> 100 µM (inactive),> 100 µM (inactive),> 100 µM (inactive),> 100 µM (inactive),> 100 µM (inactive),> 100 µM (inactive),> 100 µM (inactive)
COC(=O)/C(=N/NC(C)(C)C)C(C(=O)OC)C(=O)C(=O)Nc1nc2ccc([N+](=O)[O-])cc2s1 (stereo not given),–,> 100 µM (inactive),> 100 µM (inactive),> 100 µM (inactive),> 100 µM (inactive),> 100 µM (inactive),> 100 µM (inactive),> 100 µM (inactive),> 100 µM (inactive),> 100 µM (inactive),> 100,> 100 µM (inactive),> 100 µM (inactive),> 100 µM (inactive),> 100 µM (inactive),> 100 µM (inactive),> 100 µM (inactive),> 100 µM (inactive)
C=CCCC(OCOCCOC)c1cc(C)c(O[Si](C)(C)C(C)(C)C)c(C)c1 (stereo not given),–,19.5 µM (inactive),–,3.28 µM (inactive),11.7 µM (inactive),13.5 µM (inactive),13.2 µM (inactive),4.58 µM (inactive),17.3 µM (inactive),16.4 µM (inactive),13.2,13.3 µM (inactive),14.3 µM (inactive),15.6 µM (inactive),4.81 µM (inactive),13.9 µM (inactive),14 µM (inactive),16.7 µM (inactive)
O=S1(=O)OCCOS(=O)(=O)C1Cl,> 100 µM (inactive),> 100 µM (inactive),> 100 µM (inactive),> 100 µM (inactive),> 100 µM (inactive),> 100 µM (inactive),–,> 100 µM (inactive),> 100 µM (inactive),> 100 µM (inactive),–,> 100 µM (inactive),–,> 100 µM (inactive),> 100 µM (inactive),–,> 100 µM (inactive),> 100 µM (inactive)
O=C(N/N=C(\c1nc2ccc(Cl)cc2nc1O)C(O)c1ccccc1Cl)c1ccncc1 (stereo not given),> 100 µM (inactive),> 100 µM (inactive),> 100 µM (inactive),> 100 µM (inactive),> 100 µM (inactive),> 100 µM (inactive),> 100 µM (inactive),> 100 µM (inactive),> 100 µM (inactive),> 100 µM (inactive),> 100,> 100 µM (inactive),–,–,–,> 100 µM (inactive),> 100 µM (inactive),> 100 µM (inactive)
N#CC(c1nc2ccccc2nc1Cl)S(=O)(=O)c1ccccc1 (stereo not given),27.4 µM (inactive),> 100 µM (inactive),> 100 µM (inactive),> 100 µM (inactive),43.8 µM (inactive),> 100 µM (inactive),> 100 µM (inactive),> 100 µM (inactive),–,> 100 µM (inactive),54.1,30.1 µM (inactive),83.8 µM (inactive),39.8 µM (inactive),37.2 µM (inactive),> 100 µM (inactive),65.9 µM (inactive),> 100 µM (inactive)
NC1=NS(=O)(=O)Nc2nc(-c3ccc([N+](=O)[O-])o3)[nH]c21,14 µM (inactive),16 µM (inactive),4.58 µM (inactive),1.9 µM (inactive),16.2 µM (inactive),–,16.9 µM (inactive),–,16.3 µM (inactive),> 100 µM (inactive),19.9,3.6 µM (inactive),16.9 µM (inactive),17.7 µM (inactive),10.7 µM (inactive),20.2 µM (inactive),16.8 µM (inactive),> 10 µM (inactive)
CCCN(CCCCC(NC(C)=O)C(=O)NCc1ccccc1)C(=O)NC (stereo not given),> 100 µM (inactive),> 100 µM (inactive),> 100 µM (inactive),–,> 100 µM (inactive),> 100 µM (inactive),> 100 µM (inactive),> 100 µM (inactive),> 100 µM (inactive),> 100 µM (inactive),> 100,> 100 µM (inactive),> 100 µM (inactive),> 100 µM (inactive),> 100 µM (inactive),> 100 µM (inactive),> 100 µM (inactive),> 100 µM (inactive)
BrC/C=C/C[P+](c1ccccc1)(c1ccccc1)c1ccccc1,11.7 µM (inactive),33.3 µM (inactive),3.97 µM (inactive),2.54 µM (inactive),34.2 µM (inactive),–,12.2 µM (inactive),8.57 µM (inactive),13.1 µM (inactive),7.87 µM (inactive),–,> 100 µM (inactive),24 µM (inactive),19.5 µM (inactive),0.927 µM (active),7.46 µM (inactive),35.2 µM (inactive),4.53 µM (inactive)
Nc1n[n+](-c2ccccc2)no1,25.4 µM (inactive),–,28.3 µM (inactive),14.9 µM (inactive),83.4 µM (inactive),> 100 µM (inactive),8.49 µM (inactive),25.9 µM (inactive),33.8 µM (inactive),39.6 µM (inactive),28.1,31.8 µM (inactive),51.4 µM (inactive),82.4 µM (inactive),26.6 µM (inactive),27.6 µM (inactive),17.4 µM (inactive),45.3 µM (inactive)
C1=CC=C2NCCSCC/N=C3/C=CC=CC=C3NCCSCC/N=C\2C=C1,–,> 100 µM (inactive),> 100 µM (inactive),> 100 µM (inactive),> 100 µM (inactive),> 100 µM (inactive),> 100 µM (inactive),> 100 µM (inactive),> 100 µM (inactive),> 100 µM (inactive),> 100,> 100 µM (inactive),> 100 µM (inactive),> 100 µM (inactive),> 100 µM (inactive),> 100 µM (inactive),> 100 µM (inactive),> 100 µM (inactive)
C=C1C(OC(C)=O)CC(OC(C)=O)C2(C)C(OC(C)=O)C(OC(C)=O)C3=C(C)C(OC(=O)/C=C/c4ccccc4)CC(C(OC(C)=O)C12)C3(C)C (stereo not given),21.8 µM (inactive),–,> 100 µM (inactive),> 100 µM (inactive),> 100 µM (inactive),67.3 µM (inactive),35.5 µM (inactive),> 100 µM (inactive),23.9 µM (inactive),> 100 µM (inactive),> 100,> 100 µM (inactive),36.2 µM (inactive),> 100 µM (inactive),> 100 µM (inactive),> 100 µM (inactive),> 100 µM (inactive),> 100 µM (inactive)
CN(C)Cc1cc(/C(=C(\C#N)c2ccccc2)c2ccc(O)cc2)ccc1O,14.4 µM (inactive),13.6 µM (inactive),10.2 µM (inactive),–,20.4 µM (inactive),21.9 µM (inactive),13.9 µM (inactive),15.6 µM (inactive),18.4 µM (inactive),24.6 µM (inactive),25.4,18.4 µM (inactive),17.9 µM (inactive),18.3 µM (inactive),20.2 µM (inactive),19.6 µM (inactive),15.5 µM (inactive),14.5 µM (inactive)
CN(C)CCC1(C2=CCCC2)CC/C(=C\c2ccccc2Cl)C1=O (stereo not given),12.4 µM (inactive),13.1 µM (inactive),8.41 µM (inactive),4.41 µM (inactive),7.24 µM (inactive),–,17.3 µM (inactive),14.8 µM (inactive),14.6 µM (inactive),13.8 µM (inactive),5.85,9.25 µM (inactive),12.6 µM (inactive),13.4 µM (inactive),18.3 µM (inactive),13.2 µM (inactive),8.61 µM (inactive),16.2 µM (inactive)
